Experimental data reported in paper PMC6222329 (Molecules : A Journal of Synthetic Chemistry and Natural …, 2018).
Where two headings read alike, the source gives them in different places.

Key:
[1] = biological target: T1, AChE (Electrophorus electricus) (Electrophorus electricus, UniProt O42275); assay: AChE inhibition, Ellman's method; assay type: biochemical
T1 construct: purchased Sigma-Aldrich (Steinheim, Germany)
Method: (§1) The assay was performed in two steps.
(§2) All enzymes were obtained from Sigma-Aldrich (Steinheim, Germany). Ellman’s reagent and the substrates were obtained from Fluka (Buchs, Switzerland). The chemicals used to prepare the buffer solution were purchased from Merck (Darmstadt, Germany).
(§3) The enzyme inhibitory activities of the synthesized compounds were investigated by applying Ellman’s method. Enzyme solutions were dissolved in gelatin solution (1%; 2.5 units/mL). […] Then, the reaction was initiated by the addition of Ellman’s reagent 5,5′-Dithiobis(2-nitrobenzoic acid) (DTNB; 20 µL/well, 10 mM) and the substrate (10 µL/well, 75 mM). […] The enzyme solution was processed as a control. All readings were adjusted with blank-reading. All assays were performed in four independent wells. […] Absorbance differences between the two readings were taken, and percentage inhibition rates were calculated according to the following formula: % Inhibition=[(A(C)−A(B))−(A(I)−A(B))]/(A(C)−A(B))×100.
(§4) • Blank (B): the well in which the inhibitor compound and substrate were not added; • Control (C): the well where the inhibitor compound was not added; • A(B): the difference in absorbance reading for the blank; • A(C): the difference in absorbance reading for the control; • A(I): the difference in absorbance reading for the inhibitor compounds.

[2] = biological target: T2, AChE (Human) (Homo sapiens, UniProt P22303); assay: AChE inhibition, Ellman's method; assay type: biochemical
T2 construct: purchased Sigma-Aldrich (Steinheim, Germany)
T2 sequence (P22303 32-614): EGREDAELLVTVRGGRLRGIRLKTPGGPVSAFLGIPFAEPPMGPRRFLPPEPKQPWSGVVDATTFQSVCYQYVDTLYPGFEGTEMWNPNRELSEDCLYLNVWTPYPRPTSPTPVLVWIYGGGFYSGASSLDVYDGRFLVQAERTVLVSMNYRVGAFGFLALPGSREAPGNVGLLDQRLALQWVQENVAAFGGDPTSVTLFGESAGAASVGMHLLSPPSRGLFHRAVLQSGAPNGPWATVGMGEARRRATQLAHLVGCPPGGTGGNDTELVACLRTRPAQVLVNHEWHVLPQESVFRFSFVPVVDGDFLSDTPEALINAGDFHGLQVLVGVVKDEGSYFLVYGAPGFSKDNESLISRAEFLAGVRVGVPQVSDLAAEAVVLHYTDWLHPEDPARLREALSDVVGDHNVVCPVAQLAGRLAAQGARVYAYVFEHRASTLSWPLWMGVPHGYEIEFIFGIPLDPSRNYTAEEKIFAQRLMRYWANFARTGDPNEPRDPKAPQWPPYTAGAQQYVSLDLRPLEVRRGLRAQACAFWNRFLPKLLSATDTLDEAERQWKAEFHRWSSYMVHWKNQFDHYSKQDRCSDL
Method: as §1, §2, §3, §4

[3] = biological target: T3, BChE (Equine) (Equus caballus, UniProt P81908); assay: biochemical; assay type: biochemical
T3 construct: purchased Sigma-Aldrich (Steinheim, Germany)
T3 sequence (P81908 whole entry): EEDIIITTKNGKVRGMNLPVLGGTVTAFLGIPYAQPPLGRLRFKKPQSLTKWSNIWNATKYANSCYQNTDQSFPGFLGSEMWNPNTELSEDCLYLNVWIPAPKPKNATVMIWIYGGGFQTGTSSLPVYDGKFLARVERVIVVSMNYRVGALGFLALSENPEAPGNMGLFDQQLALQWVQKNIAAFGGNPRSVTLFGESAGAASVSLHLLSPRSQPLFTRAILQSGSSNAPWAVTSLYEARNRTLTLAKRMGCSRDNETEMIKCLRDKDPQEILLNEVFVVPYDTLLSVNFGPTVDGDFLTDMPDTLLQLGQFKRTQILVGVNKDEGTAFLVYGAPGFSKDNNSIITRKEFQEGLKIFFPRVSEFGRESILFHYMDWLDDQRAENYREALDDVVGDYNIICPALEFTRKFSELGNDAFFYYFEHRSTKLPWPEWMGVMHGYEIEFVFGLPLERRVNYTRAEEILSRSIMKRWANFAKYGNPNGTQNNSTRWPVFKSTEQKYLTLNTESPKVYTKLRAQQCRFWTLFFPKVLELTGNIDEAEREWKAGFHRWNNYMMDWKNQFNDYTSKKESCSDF
Method: as §1, §2, §3, §4

[4] = biological target: T4, BChE (Human) (Homo sapiens, UniProt P06276); assay: BChE inhibition, Ellman's method; assay type: biochemical
T4 construct: purchased Sigma-Aldrich (Steinheim, Germany)
T4 sequence (P06276 29-602): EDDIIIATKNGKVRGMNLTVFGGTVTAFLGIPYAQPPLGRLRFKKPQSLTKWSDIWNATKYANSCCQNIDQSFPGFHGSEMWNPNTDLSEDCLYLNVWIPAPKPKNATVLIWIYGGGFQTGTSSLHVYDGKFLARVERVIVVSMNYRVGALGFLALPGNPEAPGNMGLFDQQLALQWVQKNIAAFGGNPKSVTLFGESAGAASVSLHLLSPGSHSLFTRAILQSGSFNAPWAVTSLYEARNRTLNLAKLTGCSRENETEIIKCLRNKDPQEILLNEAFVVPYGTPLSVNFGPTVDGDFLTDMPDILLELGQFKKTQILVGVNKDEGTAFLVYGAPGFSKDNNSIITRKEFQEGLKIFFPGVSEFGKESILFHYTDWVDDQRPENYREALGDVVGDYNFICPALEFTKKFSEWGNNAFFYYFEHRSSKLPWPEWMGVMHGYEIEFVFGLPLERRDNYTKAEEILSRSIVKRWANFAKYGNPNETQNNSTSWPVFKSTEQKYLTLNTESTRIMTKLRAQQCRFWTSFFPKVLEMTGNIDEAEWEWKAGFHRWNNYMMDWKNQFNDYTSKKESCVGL
Method: as §1, §2, §3, §4

[5] = tested on: murine fibroblast healthy cell line (NIH3T3); assay: MTT cell viability assay; assay type: cell-based; details: 24 h, 0.000316 µM to 1000 µM, read-out: IC50 against NIH3T3
Method: (§5) The active compounds (4a, 4b, 4e, 4i, 4m, 4n, 4o, and 4t) were chosen to determine their cytotoxic activity toward a murine fibroblast healthy cell line (NIH3T3). After incubating the cells with active compounds at concentrations of 0.000316 µM to1000 µM for 24 h, the cell viability was measured using the 3-(4,5-dimethylthiazol-2-yl)-2,5-diphenyltetrazolium (MTT) assay. The inhibition percentage was calculated for each concentration of the test compounds. The IC50 values of the compounds were determined using a non-linear regression analysis over the calculated percentage inhibition values, and they are presented in Table 2. Accordingly, the cytotoxicity test proposed that the active derivatives were nontoxic against NIH3T3 cells at their active concentrations against BChE.
(§6) Healthy murine embryonic fibroblast cells (NIH3T3 cell line) were used for the cytotoxicity tests. The cell line and selected compounds were prepared for an MTT assay as reported previously. The optical densities (OD) of 96 well plates were recorded at 540 nm. […]

[6] = biological target: T5, human butyrylcholinesterase (BChE) (Homo sapiens, UniProt P06276); assay: Enzyme kinetics of BChE inhibition (Lineweaver-Burk plots); assay type: biochemical
T5 construct: purchased Sigma-Aldrich (Steinheim, Germany)
T5 sequence (P06276 29-602): as above
Text: To recognize the inhibition type, enzyme kinetics studies were applied using Lineweaver–Burk plots. […]. […] This pattern also indicates a mixed-type inhibition.
The calculation of the inhibition constant (Ki) is an effective tool for measuring the affinity of an enzyme for […], and it is easily determined using the secondary plots of the Lineweaver–Burk equation. […].
In the kinetics studies, the assay protocol specified for the inhibition assay was identical. […]. Measurements were performed one of two ways, in the presence and in the absence of the inhibitor. […]. After addition of BChE (20 μL/well), the mixture was incubated under the same conditions as the activity assay. Then, the reaction was initiated by the addition of Ellman’s reagent (DTNB; 20 µL/well, 10 mM) and the substrate (10 µL/well, 75 mM). The absorbance was measured for 10 min at 412 nm. The enzyme solution was processed as a control. All readings were adjusted with blank-reading. The results were analyzed as Lineweaver–Burk plots using Microsoft Office Excel 2013 [15].

[7] = MTT cell viability assay; assay type: cell-based, murine; details: mouse, NIH3T3 murine embryonic fibroblast cells, 0.000316 µM to 1000 µM, read-out: IC50 against NIH3T3
Method: as §5, §6

[8] = read-out: AChE (Electrophorus electricus) inhibitory activity (%) ± SD
[9] = read-out: AChE (Human) inhibitory activity (%) ± SD
[10] = read-out: BChE (Human) inhibitory activity (%) ± SD

T1 sequence (O42275 24-633): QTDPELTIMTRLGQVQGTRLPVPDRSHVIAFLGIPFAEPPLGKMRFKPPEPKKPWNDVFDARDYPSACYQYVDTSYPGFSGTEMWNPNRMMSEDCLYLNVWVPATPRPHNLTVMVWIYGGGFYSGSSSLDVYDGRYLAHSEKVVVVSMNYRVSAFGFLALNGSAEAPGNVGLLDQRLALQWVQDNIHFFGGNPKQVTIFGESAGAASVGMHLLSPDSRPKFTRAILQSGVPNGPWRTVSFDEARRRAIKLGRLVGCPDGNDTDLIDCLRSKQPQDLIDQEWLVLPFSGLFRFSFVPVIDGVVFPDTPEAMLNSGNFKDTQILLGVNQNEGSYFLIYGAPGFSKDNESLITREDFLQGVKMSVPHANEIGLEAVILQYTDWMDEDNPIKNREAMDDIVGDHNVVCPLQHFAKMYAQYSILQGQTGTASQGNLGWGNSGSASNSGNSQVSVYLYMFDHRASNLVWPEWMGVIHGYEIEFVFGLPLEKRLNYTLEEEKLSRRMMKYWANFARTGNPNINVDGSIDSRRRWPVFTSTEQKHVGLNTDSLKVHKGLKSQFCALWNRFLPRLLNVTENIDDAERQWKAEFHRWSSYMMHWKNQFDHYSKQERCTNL

O=C(CSC(=S)N1CCN(c2ccc(Cl)cc2)CC1)Nc1c2ccccc2nc2ccccc12 [Compound 4i, 2-(9-Acridinylamino)-2-oxoethyl 4-(4-chlorophenyl)piperazine-1-carbodithioate]
AChE (Electrophorus electricus) inhibitory activity (%) ± SD ([1]; 10^-3 M): 86.41±2.91%
AChE (Electrophorus electricus) inhibitory activity (%) ± SD ([1]; 10^-4 M): 35.91 ± 1.57%
AChE (Human) inhibitory activity (%) ± SD ([2]; 10^-3 M): 89.20±1.25%
AChE (Human) inhibitory activity (%) ± SD ([2]; 10^-4 M): 33.85 ± 1.15%
IC50 [3]: 2.04 ± 0.068 µM
BChE (Equine) inhibitory activity (%) ± SD ([3]; 10^-3 M): 99.37±3.41%
BChE (Equine) inhibitory activity (%) ± SD ([3]; 10^-4 M): * 69.51 ± 1.16%
BChE (Equine) inhibitory activity (%) ± SD ([3]; 10^-5 M): 44.32±0.79%
BChE (Equine) inhibitory activity (%) ± SD ([3]; 10^-6 M): 38.72±0.82%
BChE (Equine) inhibitory activity (%) ± SD ([3]; 10^-7 M): 33.65±0.45%
BChE (Equine) inhibitory activity (%) ± SD ([3]; 10^-8 M): 26.52±0.80%
BChE (Equine) inhibitory activity (%) ± SD ([3]; 10^-9 M): 25.73±0.70%
BChE (Human) inhibitory activity (%) ± SD ([4]; 10^-3 M): 98.22±2.14%
BChE (Human) inhibitory activity (%) ± SD ([4]; 10^-4 M): * 72.90 ± 1.08%
BChE (Human) inhibitory activity (%) ± SD ([4]; 10^-5 M): 42.99±1.02%
BChE (Human) inhibitory activity (%) ± SD ([4]; 10^-6 M): 35.00±0.87%
BChE (Human) inhibitory activity (%) ± SD ([4]; 10^-7 M): 30.49±0.56%
BChE (Human) inhibitory activity (%) ± SD ([4]; 10^-8 M): 21.77±0.40%
BChE (Human) inhibitory activity (%) ± SD ([4]; 10^-9 M): 20.69±0.38%
IC50 ([4]; read-out: BChE (Human) IC50): 2.1 ± 0.085 µM
IC50 [5]: > 1000 µM

O=C(CSC(=S)N1CCN(C(c2ccccc2)c2ccccc2)CC1)Nc1c2ccccc2nc2ccccc12 [Compound 4m, 2-(9-Acridinylamino)-2-oxoethyl 4-benzhydrylpiperazine-1-carbodithioate]
AChE (Electrophorus electricus) inhibitory activity (%) ± SD ([1]; 10^-3 M): 71.23±2.15%
AChE (Electrophorus electricus) inhibitory activity (%) ± SD ([1]; 10^-4 M): 25.43 ± 1.21%
AChE (Human) inhibitory activity (%) ± SD ([2]; 10^-3 M): 75.18±1.21%
AChE (Human) inhibitory activity (%) ± SD ([2]; 10^-4 M): 27.38 ± 1.10%
IC50 [3]: 0.092 ± 0.001 µM
BChE (Equine) inhibitory activity (%) ± SD ([3]; 10^-3 M): 99.65±3.86%
BChE (Equine) inhibitory activity (%) ± SD ([3]; 10^-4 M): * 98.96 ± 3.47%
BChE (Equine) inhibitory activity (%) ± SD ([3]; 10^-5 M): 90.78±3.92%
BChE (Equine) inhibitory activity (%) ± SD ([3]; 10^-6 M): 80.30±2.56%
BChE (Equine) inhibitory activity (%) ± SD ([3]; 10^-7 M): 40.34±0.61%
BChE (Equine) inhibitory activity (%) ± SD ([3]; 10^-8 M): 30.24±0.70%
BChE (Equine) inhibitory activity (%) ± SD ([3]; 10^-9 M): 18.98±0.20%
BChE (Human) inhibitory activity (%) ± SD ([4]; 10^-3 M): 98.18±2.71%
BChE (Human) inhibitory activity (%) ± SD ([4]; 10^-4 M): * 97.50 ± 2.06%
BChE (Human) inhibitory activity (%) ± SD ([4]; 10^-5 M): 92.54±2.45%
BChE (Human) inhibitory activity (%) ± SD ([4]; 10^-6 M): 81.25±2.08%
BChE (Human) inhibitory activity (%) ± SD ([4]; 10^-7 M): 44.61±0.79%
BChE (Human) inhibitory activity (%) ± SD ([4]; 10^-8 M): 29.11±0.63%
BChE (Human) inhibitory activity (%) ± SD ([4]; 10^-9 M): 17.00±0.33%
fold better BChE inhibition in comparison with donepezil ([4]; ratio of IC50 values): 15.4 fold
IC50 ([4]; read-out: BChE (Human) IC50): 0.093 ± 0.002 µM
IC50 [5]: 214 µM

O=C(CSC(=S)N1CCN(Cc2ccc(C(F)(F)F)cc2)CC1)Nc1c2ccccc2nc2ccccc12 [Compound 4n, 2-(9-Acridinylamino)-2-oxoethyl 4-(4-(trifluoromethyl)benzyl)piperazine-1-carbodithioate]
IC50 [1]: 45.9 ± 1.58 µM
inhibition at 0.001 µM [1, 8]: 6.91 ± 0.27%
inhibition at 0.01 µM [1, 8]: 8.43 ± 0.38%
inhibition at 0.1 µM [1, 8]: 11.3 ± 0.61%
inhibition at 1 µM [1, 8]: 14.6 ± 0.76%
inhibition at 10 µM [1, 8]: 22.4 ± 0.8%
inhibition at 100 µM [1, 8]: 63.2%
inhibition at 1000 µM [1, 8]: 81 ± 2.65%
IC50 [2]: 41.1 ± 1.69 µM
inhibition at 0.001 µM [2, 9]: 3 ± 0.12%
inhibition at 0.01 µM [2, 9]: 5.51 ± 0.17%
inhibition at 0.1 µM [2, 9]: 9.18 ± 0.22%
inhibition at 1 µM [2, 9]: 10.5 ± 0.37%
inhibition at 10 µM [2, 9]: 18.5 ± 0.54%
inhibition at 100 µM [2, 9]: 68.4%
inhibition at 1000 µM [2, 9]: 83.3 ± 1.78%
IC50 [3]: 0.015 ± 0.0006 µM
inhibition at 1000 µM ([3]; 10^-3 M, read-out: BChE (Equine) inhibitory activity (%) ± SD): 99.5 ± 2.97%
inhibition at 100 µM ([3]; 10^-4 M, read-out: BChE (Equine) inhibitory activity (%) ± SD): 99%
inhibition at 10 µM ([3]; 10^-5 M, read-out: BChE (Equine) inhibitory activity (%) ± SD): 92.5 ± 2.86%
inhibition at 1 µM ([3]; 10^-6 M, read-out: BChE (Equine) inhibitory activity (%) ± SD): 81.3 ± 1.25%
inhibition at 0.1 µM ([3]; 10^-7 M, read-out: BChE (Equine) inhibitory activity (%) ± SD): 49.3 ± 0.58%
inhibition at 0.01 µM ([3]; 10^-8 M, read-out: BChE (Equine) inhibitory activity (%) ± SD): 43.7 ± 1.11%
inhibition at 0.001 µM ([3]; 10^-9 M, read-out: BChE (Equine) inhibitory activity (%) ± SD): 39.25 ± 0.22%
IC50 [4]: 0.014 ± 0.0005 µM
inhibition at 0.001 µM [4, 10]: 37.2 ± 0.69%
inhibition at 0.01 µM [4, 10]: 43.6 ± 0.84%
inhibition at 0.1 µM [4, 10]: 50.5 ± 0.69%
inhibition at 1 µM [4, 10]: 83.2 ± 1.07%
inhibition at 10 µM [4, 10]: 93.7 ± 2.45%
inhibition at 100 µM [4, 10]: 98.2%
inhibition at 1000 µM [4, 10]: 99.3 ± 2.1%
inhibition type of BChE ([6]; Lineweaver-Burk plot, inhibitor at IC50/2, IC50, 2 x IC50): mixed inhibition
Ki ([6]; secondary plot of Lineweaver-Burk, substrate BTCI, read-out: steady-state inhibition constant (Ki) against BChE): 0.0175 µM
IC50 at 24 h [7]: > 1000 µM

Cc1ccc(CN2CCN(C(=S)SCC(=O)Nc3c4ccccc4nc4ccccc34)CC2)cc1 [Compound 4o, 2-(9-Acridinylamino)-2-oxoethyl 4-(4-methylbenzyl)piperazine-1-carbodithioate]
AChE (Electrophorus electricus) inhibitory activity (%) ± SD ([1]; 10^-3 M): 94.97±3.61%
AChE (Electrophorus electricus) inhibitory activity (%) ± SD ([1]; 10^-4 M): 25.30 ± 1.01%
AChE (Human) inhibitory activity (%) ± SD ([2]; 10^-3 M): 90.29±2.18%
AChE (Human) inhibitory activity (%) ± SD ([2]; 10^-4 M): 30.45 ± 1.15%
IC50 [3]: 1.07 ± 0.051 µM
BChE (Equine) inhibitory activity (%) ± SD ([3]; 10^-3 M): 98.64±3.86%
BChE (Equine) inhibitory activity (%) ± SD ([3]; 10^-4 M): * 74.83 ± 2.17%
BChE (Equine) inhibitory activity (%) ± SD ([3]; 10^-5 M): 46.33±0.91%
BChE (Equine) inhibitory activity (%) ± SD ([3]; 10^-6 M): 42.99±0.97%
BChE (Equine) inhibitory activity (%) ± SD ([3]; 10^-7 M): 35.48±0.67%
BChE (Equine) inhibitory activity (%) ± SD ([3]; 10^-8 M): 25.36±0.49%
BChE (Equine) inhibitory activity (%) ± SD ([3]; 10^-9 M): 16.54±0.56%
BChE (Human) inhibitory activity (%) ± SD ([4]; 10^-3 M): 99.25±2.63%
BChE (Human) inhibitory activity (%) ± SD ([4]; 10^-4 M): * 75.25 ± 2.08%
BChE (Human) inhibitory activity (%) ± SD ([4]; 10^-5 M): 48.19±1.12%
BChE (Human) inhibitory activity (%) ± SD ([4]; 10^-6 M): 41.37±0.95%
BChE (Human) inhibitory activity (%) ± SD ([4]; 10^-7 M): 37.90±0.71%
BChE (Human) inhibitory activity (%) ± SD ([4]; 10^-8 M): 24.71±0.55%
BChE (Human) inhibitory activity (%) ± SD ([4]; 10^-9 M): 20.80±0.48%
IC50 ([4]; read-out: BChE (Human) IC50): 1.07 ± 0.039 µM
IC50 [5]: > 1000 µM
